Source: patent US5663150A, “Cyclopentane-β-amino acid tripeptides” (Bayer Aktiengesellschaft, priority 1995, dated 1997)

System: C. albicans
Assay: systemic mouse candidiasis, in-vivo antimycotic activity
Settings: male CFW1 mice infected i.v. with 3×10^5 CFU C. albicans; 50 mg/kg 2 × daily p.o. for 5 days; survival up to 10th day p.i.; 10 animals per group
Description: Testing of in-vivo activity
The test model for antimycotic in-vivo actions used was systemic mouse candidias is:
Male CFW1 mice of weight 20 g were infected in the tail vein by injection of 3×10^5 CFU of C. albicans per animal.
Untreated control animals died completely within one week post-infectionem (p.i.) of a generalized candidiasis with granuloma formation in the kidneys. For activity testing, the preparations, dissolved in a 0.2% strength aqueous glucose-agar solution, were administered orally by stomach tube to the infected animals twice daily.
The daily doses were 2×50 mg/kg of body weight (BW), the treatment period was 5 days.
The survival rates of the treated animals were noted daily up to the 10th day p.i. In the case of the untreated control animals, no animals survived at this point.
For the preparations, 10 animals each were employed per dose and control group.

C=C1C[C@H](NC(=O)[C@@H](NC(=O)[C@@H](N)C(C)CC)C(C)CC)[C@H](C(=O)O)C1 (relative stereo) [Example 1, (-)-1,2-cis-(2-((S)-Isoleucyl)-(S)-isoleucylamino)-4-methylenecyclopentane-1-carboxylic acid]
Number of surviving animals: 8/10
